Assay [1] concerns the target Hu PD-L1/PD-1 (Homo sapiens, UniProt Q9NZQ7). Kind of assay: Cell binding assay Hu PD-L1/PD-1 (Tables 11-13, cell line not given). The note with it: Table 13, Compound No. 71 series. The format is cell-based. In a few lines:
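Three formats. In the L2987 imaging assay, natively PD-L1-expressing cells received inhibitor and PE-PD-1-Ig for 1 h at 37 °C, followed by fixation and nuclear Hoechst staining. In the flow-cytometry assays, LK35.2 cells overexpressing hPD-L1 were pre-treated 15 min with inhibitor, then bound 2 nM PE-PD-1-Ig for 1 h at RT in RPMI/2% FCS, while Jurkat-PD-1 cells bound PE-PD-L1-Ig.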

In assay [2] the target is T1, Human PD-L1/PD-1 (Homo sapiens, UniProt Q9NZQ7).
T1 construct: made in house; host or cells: HEK293T
Put plainly: HTRF PD-1-Ig/PD-L1-His binding assay (human PD-L1). In a few lines:
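HTRF read-out: Eu cryptate anti-Ig mAb 1 nM final, APC anti-His mAb 20 nM final, added over the binding reaction. Proteins were PD-1-Ig and PD-L1-His ectodomain fusions. Buffer was dPBS, 0.1% BSA, 0.05% Tween-20.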
A general note: In TR-FRET formats the signal depends on donor and acceptor labels being close together.

The target in assay [3] is CMV-specific T cells (Homo sapiens, UniProt Q9NZQ7). Put plainly: CMV-specific T cell function assay (IFNγ secretion, ELISA). The format is cell-based. The settings on record: read-out: CMV Recall EC50 value. Here is the method: CMV-specific T Cell Function Assay. […] AIM-V medium (Life Technologies, Grand Island, N.Y.) supplemented with 10% heat-inactivated fetal bovine serum (FBS, Sigma, St Louis, Mo.) was used at a total volume of 200 µL/well in triplicate. The cells were cultured for 4 days at 37° C., 5% CO2 at which time culture supernatant was harvested for determination of secreted IFNγ by ELISA (OptEIA hIFNγ ELISA Kit, BD Biosciences, San Jose, Calif.).
On the technique in general: In an ELISA, binding on a coated surface is turned into a signal by an enzyme label.

Assay [4] deals with T2, LK35.2-hPD-L1 cells / PE-labeled PD-1-Ig (Homo sapiens, UniProt Q9NZQ7).
T2 construct: expressed in transfected cells; host or cells: LK35.2 mouse B cell line
Put plainly: LK35.2-hPD-L1 cell binding high-content screening assay. The format is cell-based. The settings on record: cell line of CBA not given (LK35.2-hPD-L1 or 293T-hPD-L1). In a few lines:
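Fluorescent PD-1-Ig binding to PD-L1-expressing LK35.2 cells, imaged after washing. Conditions: 1 nM PE-PD-1-Ig, 37 °C, 1 h, RPMI with 10% fetal calf serum.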

The mark [5] stands for this setting: Table 9, Compound No. 71 variant macrocyclic peptides, read-out: HTRF Human PD-L1/PD-1 Binding Assay IC50.

Read-outs that look alike come from different tables or passages of the source. Positions of bridges follow the written chain, without caps; N, C: chain ends. Non-standard residues stand in square brackets, D forms with d. Residues, ends and D or L forms follow the SMILES beside them. ξ: configuration not given here. Bta = N[C@@H](Cc1csc2ccccc12)C(=O)O; Hyp = O=C(O)[C@@H]1C[C@@H](O)CN1; dNMeNle = CCCC[C@@H](NC)C(=O)O; NMeNle = CCCC[C@H](NC)C(=O)O; NMeA = CN[C@@H](C)C(=O)O; dDap = NC[C@@H](N)C(=O)O; Dab = NCC[C@H](N)C(=O)O; Dap = NC[C@H](N)C(=O)O; ξP = O=C(O)C1CCCN1

Broadly, the EC50 is the midpoint of the concentration-response curve.

T1 sequence (Q9NZQ7 with tags, fused parts or gaps): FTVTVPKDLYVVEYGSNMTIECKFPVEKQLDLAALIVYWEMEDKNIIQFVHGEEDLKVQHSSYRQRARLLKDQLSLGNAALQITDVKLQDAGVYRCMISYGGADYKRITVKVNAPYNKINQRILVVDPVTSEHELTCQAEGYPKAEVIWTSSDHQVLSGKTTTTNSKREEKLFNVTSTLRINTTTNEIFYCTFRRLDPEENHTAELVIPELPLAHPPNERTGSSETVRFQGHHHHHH
Hu PD-L1/PD-1, sequence (Q9NZQ7 19-290): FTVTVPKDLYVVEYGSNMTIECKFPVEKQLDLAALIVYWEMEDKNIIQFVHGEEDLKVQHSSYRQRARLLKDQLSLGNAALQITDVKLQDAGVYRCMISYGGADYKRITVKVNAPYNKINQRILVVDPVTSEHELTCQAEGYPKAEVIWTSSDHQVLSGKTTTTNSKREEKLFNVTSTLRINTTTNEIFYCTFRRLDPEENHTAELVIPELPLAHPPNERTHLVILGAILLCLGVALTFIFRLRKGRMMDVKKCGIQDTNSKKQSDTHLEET
CMV-specific T cells, sequence (Q9NZQ7 19-290): as above
T2 sequence (Q9NZQ7 19-290): as above

For the molecule `CCCC[C@H]1C(=O)N(C)[C@@H](C)C(=O)N[C@@H](CC(=O)O)C(=O)N[C@@H](C(C)C)C(=O)N(C)[C@@H](Cc2ccccc2)C(=O)N[C@@H](Cc2ccc(O)cc2)C(=O)N(C)CC(=O)N[C@@H](Cc2c[nH]c3ccccc23)C(=O)N[C@@H](Cc2ccc(O)cc2)C(=O)N[C@@H](CC(C)C)C(=O)N[C@H](C(=O)NCC(N)=O)CSCC(=O)N[C@@H](Cc2ccccc2)C(=O)N(C)[C@@H](Cc2ccccc2)C(=O)N1C` [Compound No. 77] (HELM PEPTIDE1{[O=C(C[*:3])[*:2]].F.[meF].[CCCC[C@@H](C(=O)[*:2])N(C)[*:1]].[meA].D.V.[meF].Y.[Sar].W.Y.L.C.G.[am]}$PEPTIDE1,PEPTIDE1,1:R3-14:R3$$$V2.0), the IC50 turned out to be 16 nM in assay [1] and 24 nM in assay [2] (setting [5]).

Turning to `CCCC[C@H]1C(=O)N(C)CC(=O)N[C@@H](CC(=O)O)C(=O)N[C@@H](C(C)C)C(=O)N(C)[C@@H](C)C(=O)N[C@@H](Cc2ccc(O)cc2)C(=O)N(C)CC(=O)N[C@@H](Cc2c[nH]c3ccccc23)C(=O)N[C@@H](Cc2ccc(O)cc2)C(=O)N[C@@H](CC(C)C)C(=O)N[C@H](C(=O)NCC(N)=O)CSCC(=O)N[C@@H](Cc2ccccc2)C(=O)N(C)[C@@H](Cc2ccccc2)C(=O)N1C` [Compound No. 81] (HELM PEPTIDE1{[O=C(C[*:3])[*:2]].F.[meF].[CCCC[C@@H](C(=O)[*:2])N(C)[*:1]].[Sar].D.V.[meA].Y.[Sar].W.Y.L.C.G.[am]}$PEPTIDE1,PEPTIDE1,1:R3-14:R3$$$V2.0), the IC50 in assay [1] and in assay [2] (setting [5]) was > 10000 nM each time.

Consider `CCCC[C@H]1C(=O)N(C)CC(=O)N[C@@H](CC(=O)O)C(=O)N[C@@H](C(C)C)C(=O)N(C)[C@@H](Cc2ccccc2)C(=O)N[C@@H](Cc2ccc(O)cc2)C(=O)N(C)CC(=O)N[C@@H](Cc2c[nH]c3ccccc23)C(=O)N[C@@H](Cc2ccc(O)cc2)C(=O)N[C@@H](C)C(=O)N[C@H](C(=O)NCC(N)=O)CSCC(=O)N[C@@H](Cc2ccccc2)C(=O)N(C)[C@@H](Cc2ccccc2)C(=O)N1C` [Compound No. 87] (HELM PEPTIDE1{[O=C(C[*:3])[*:2]].F.[meF].[CCCC[C@@H](C(=O)[*:2])N(C)[*:1]].[Sar].D.V.[meF].Y.[Sar].W.Y.A.C.G.[am]}$PEPTIDE1,PEPTIDE1,1:R3-14:R3$$$V2.0), for which the IC50 came out at 73 nM in assay [1] and 25 nM in assay [2] (setting [5]).

With `CCCC[C@H]1C(=O)N(C)[C@@H](CCCC)C(=O)N[C@@H](CN)C(=O)N[C@H](C(=O)NCC(N)=O)CSCC(=O)N[C@@H](Cc2ccc(O)cc2)C(=O)N(C)[C@@H](C)C(=O)N[C@@H](CC(=O)O)C(=O)N2CCC[C@H]2C(=O)N[C@@H](CN)C(=O)N[C@@H](CC(C)C)C(=O)N2C[C@H](O)C[C@H]2C(=O)N[C@@H](Cc2c[nH]c3ccccc23)C(=O)N[C@@H](CO)C(=O)N[C@@H](Cc2csc3ccccc23)C(=O)N1C` [Example 1163] ({CH2CO}-Y[NMeA]DP[Dap]L[Hyp]WS[Bta][NMeNle][NMeNle][Dap]CG-NH2; thioether N-14), the results for the IC50 in assay [2] (read-out: HTRF IC50 value) and in assay [4] (read-out: CBA IC50 value) were 6.24 nM and 4.04 nM, respectively. The EC50 in assay [3] was 2.93 nM.

In the case of `CCCC[C@@H]1C(=O)N(C)[C@H](CCCC)C(=O)N[C@@H](C)C(=O)N[C@@H](C(=O)NCC(N)=O)CSCC(=O)N[C@@H](Cc2ccc(O)cc2)C(=O)N2CCCC2C(=O)N[C@H](CC(=O)O)C(=O)N2CCC[C@H]2C(=O)N[C@H](CN)C(=O)N[C@@H](CC(=O)O)C(=O)N2CCCC2C(=O)N[C@H](Cc2c[nH]c3ccccc23)C(=O)N[C@@H](CCN)C(=O)N[C@@H](Cc2c[nH]c3ccccc23)C(=O)N1C` (stereo partly drawn) [Example 1210] ({CH2CO}-Y[ξP][dD]P[dDap]D[ξP][dW][Dab]W[dNMeNle][dNMeNle]A[dC]G-NH2; thioether N-14), the IC50 in assay [2] (cluster symbol, read-out: HTRF IC50 cluster) is > 30.5 nM; in assay [4] (cluster symbol, read-out: CBA IC50 cluster) it was > 74.3 nM. For the same molecule, the EC50 in assay [3] was > 2500 nM.

These data come from patent US9850283B2, “Macrocyclic inhibitors of the PD-1/PD-L1 and CD80(B7-1)/PD-L1 protein/protein interactions” (BRISTOL-MYERS SQUIBB COMPANY, priority 2013, dated 2017).
